What is called melting point is the temperature of the solid-liquid transition. With `COC1=CCC2=C(CC[C@H]3[C@@H]4CCC(=O)[C@@]4(C)CC[C@]23C)C1`, the melting point is 155 to 158 °C. With `c1cn(CC2CCCCC2)cn1` the figure was 25 to 30 °C. With `COc1cccc2c1CCC1C(=O)N(C(C)c3ccccc3)C(=O)C21` (centres undefined) the figure was 101 to 103 °C; with `CC(=O)N(C)c1cnc2ccc(Cl)cc2c1-c1ccccc1`, 268 to 270 °C; with `CCOC(=O)C1=Cc2cc(Cl)cc(C=NO)c2OC1C(F)(F)F` (centres undefined), 187 to 188 °C. For `N#Cc1nn(-c2c(Cl)cc(C(F)(F)F)cc2Cl)c(-n2cccn2)c1S(=O)(=O)C(F)(F)F`, the melting point is 191 to 193 °C. The same measure for `O=[N+]([O-])c1cccnc1Oc1ccc2c(c1)OCC(c1ccccc1)O2` (centres undefined): below 60 °C; for `O=C(c1ccc2[nH]c(=O)n(Cc3ccc(F)cc3)c(=O)c2c1)c1nc(Br)c2ccccn12`: 325 °C. With `CN(C)C(=NC(=O)C(O)(C(N)=O)c1ccc(Cl)c(Cl)c1)N(C)C` (centres undefined) the figure was 98 to 100 °C; with `CC(C)(C)c1ccc(C2(C)CC(=Cc3ccccc3)CC2=O)cc1` (centres undefined), 140 to 143 °C; with `Cc1ccccc1N1CCN(S(=O)(=O)CC23CCC(CC2=NO)C3(C)C)CC1` (centres undefined), 174 to 175 °C. The same measure for `NC(=O)CN1C(=O)COc2cc(F)c([N+](=O)[O-])cc21`: 220 to 226 °C; for `O=C1CNc2ncc(I)cc2N1Cc1cccc(F)c1C(F)(F)F`: above 200 °C. Turning to `COc1cc(OS(=O)(=O)C(F)(F)F)c(Cl)c(C)c1Cl`, the melting point was 74 °C. With `Cc1ccc2c(c1)c(C)c(C(=O)OCc1ccccc1)n2CCC#N` the figure was 71 °C; with `COC(=O)C1OC(I)C(OC(=O)C(C)(C)C)C(OC(=O)C(C)(C)C)C1OC(=O)C(C)(C)C` (centres undefined), 98 to 100 °C; with `O=C1c2ccccc2N(c2ccccc2)CN1O`, 156 to 160 °C.

Molecule `CN(Cc1cc2c(=O)c(C(=O)NCc3ccc(Cl)cc3)cn(C)c2o1)CC(O)c1nccs1` (centres undefined) had a melting point of 114 to 116 °C.

In the case of `CN1CCC23COC(C)(C)OC2C1Cc1ccc(O)cc13` (centres undefined), the melting point lay in the range of 237 to 238 °C. `O=C(c1cccnc1)N1CC2COc3ccc(Cl)cc3C2=N1` (centres undefined) returned a melting point of 165 to 166 °C. With `O=C(Oc1ccc2c(c1)CCCC2)Oc1ccc2c(c1)CCCC2` the figure was 112 °C; with `O=C(Nc1ccc2[nH]c(=O)[nH]c2c1)C(=O)N1CCC(Cc2ccc(F)cc2)CC1`, above 260 °C; with `CCCCCCN1Cc2cc3ccccc3n2Cc2ccccc21`, 45 °C. With `CC(=O)Oc1cc2ccccc2cc1C(=O)O`, the melting point is 185 to 186 °C.

`COC1=C(c2ccccc2)C(CC(=O)O)OC1=O` (centres undefined) registered a melting point of 159 to 160 °C. For the molecule `CCOc1cc2c(C[C@H](C)N)c3n(c2cc1F)CCC3`, the melting point stood at 107 °C.

`CN1CCc2c(cccc2NC(=O)c2ccccc2F)C1` showed a melting point of 112 °C. With `CC(C)(CO)NC(=O)c1nn(-c2ccc(Cl)cc2)c2c1C1CCC2C1` (centres undefined) the figure was 167 to 169 °C; with `CCOC(=O)CCCN(C(=O)CCC1CCCCC1)C1N=C(c2ccccc2)c2ccccc2N(C)C1=O` (centres undefined), 103 to 105 °C; with `NC(=O)c1cc(Oc2ccc(Cl)c(Cl)c2)cnc1O`, 246 to 249 °C. The molecule `Cc1nc(-c2ccc(OC(C)C)c([N+](=O)[O-])c2)sc1C(=O)OC(C)C` gave a melting point of 91 to 92 °C. The same measure for `CC(=O)NCC1(C)CC(O)c2ccccc2O1` (centres undefined): 168 to 170 °C.

For the molecule `C=CCC1C=C(c2c[nH]c(-c3ccc(F)cc3)c2-c2ccncc2)CCN1C` (centres undefined), the melting point fell in the range of 218 to 220 °C. The same measure for `CCNC(=C[N+](=O)[O-])NCCSCc1csc(CN(C)C)n1`: 89 to 90 °C. The same measure for `COS(=O)(=O)c1cc(C(C)(C)C)c(O)c(C(C)(C)C)c1`: 116 to 118 °C; for `Cc1nc2c(N)nc3ccccc3c2n1OC(C)C`: 243 °C; for `S=C(Nc1cccc(Cl)c1)N1CCOC1C1CCCCC1` (centres undefined): 117 to 119 °C.

For `COc1cc2ncn(CCCCCl)c(=O)c2cc1OC`, the melting point came out at 117 °C. The molecule `O=C(O)C1CCc2cc(C3CCCCCC3)c(Cl)cc21` (centres undefined) yielded a melting point of 138 to 140 °C. With `COC(=O)c1cc(N)c(C(C)(C)C)c(N)c1` the figure was 71 to 73 °C; with `CC(C)C1(C)Cc2cc(OCC(=O)O)c(Cl)c(Cl)c2C1=O` (centres undefined), 148 °C; with `CC(C)(C)c1ccc(NC(=O)Nc2ccc(Oc3cc(Cl)ncn3)cc2)cc1`, 111 to 112 °C. With `COc1ccc2c(c1)Sc1c(cc(OC)c(OC)c1Br)N2` the figure was 223 to 225 °C.

In turn, `COc1cc2c(Nc3ccc(Oc4cccnc4)cc3)c(C#N)cnc2cc1N1CCC(N2CCCC2)CC1` yielded a melting point of 194 to 196 °C. As to `CC#CCOc1ccc(S(=O)(=O)C2(C(=O)NO)CCCN(Cc3ccc(Cl)cc3)C2)cc1` (centres undefined), the melting point worked out at 124 °C. As to `O=C(CNC(=O)C(Cc1ccccc1)NC(=O)C1CCCN1)Oc1c(Cl)c(Cl)c(Cl)c(Cl)c1Cl` (centres undefined), the melting point was 182 to 184 °C.

In turn, `Cc1nc[nH]c(=O)c1Cc1ccccc1` came in with a melting point of 140 to 142 °C. The same measure for `CC(C)OC(=O)Nc1ccc(N)c([N+](=O)[O-])c1`: 173 to 175 °C; for `CCC(CC)n1cc(C#N)nc(N2CCc3cc(Cl)cc(Cl)c32)c1=O`: 197 to 199 °C; for `O=C(O)c1ccc2c(c1)Cc1ccccc1CO2`: 240 to 244 °C. The same measure for `c1ccc(CN2CC3CC2CN3C2=Nc3ccccc3Oc3ccccc32)cc1` (centres undefined): 70 to 72 °C; for `COC(=O)c1ccc(C2(c3ccc4c(c3)C3(C)C5(C)CCC(C5)C3(C)O4)OCCO2)cc1` (centres undefined): 136 to 137 °C; for `CCN(C)c1ccc2c(c1)CNC2=O`: 127 to 129 °C. In the case of `NS(=O)(=O)c1ccc(-n2cc(C(F)(F)F)nc2-c2ccc(-c3cscn3)cc2)cc1F`, the melting point is 130 to 133 °C. With `O=C(O)c1nc2cc(N3CCCCC3)c([N+](=O)[O-])cc2[nH]c1=O` the figure was above 300 °C; with `CC1(C)Oc2cc3nonc3cc2C(NC(=O)NCCCCl)C1O` (centres undefined), 83 to 85 °C.

`COc1nc(-c2ccc(F)cc2C)c2c(n1)N(c1c(F)cccc1F)C(=O)NC2` displayed a melting point of 210 to 211 °C. Consider `O=P1(O)OCc2ccccc21`, for which the melting point was 167 °C. With `CC(C)CCOc1ccc(OCn2cnc(Cl)c2Cl)cc1` the figure was 105 to 108 °C.

`CCCCC1(C2CCCC2)Cc2cc(OCCCC(=O)O)c(Cl)c(Cl)c2C1=O` (centres undefined) yielded a melting point of 139 to 140 °C. The same measure for `O=C(O)C1=Cc2cc(Cl)c(Oc3ccc(Cl)cc3)cc2OC1C(F)(F)F` (centres undefined): 205 to 206 °C; for `O=C1C(CCO)Oc2cc([N+](=O)[O-])ccc2N1Cc1ccccc1[N+](=O)[O-]` (centres undefined): 139 to 143 °C; for `CC(=O)NC[C@H]1CN(c2ccc(C3=CCN(C(=O)COC(C)=O)CC3)c(F)c2)C(=O)O1`: 188 to 191 °C.

`Cn1c(C(F)(F)F)cc(=O)n(-c2cc(OCc3ccccc3F)c(Cl)cc2F)c1=O` registered a melting point of 126 to 128 °C. The same measure for `COc1cc2c(cc1OC)CC(=O)NC=C2`: 234 to 237 °C; for `C1=C(CCC2=Cc3ccccc32)c2ccccc21`: 86 to 87 °C; for `FC(F)(F)c1cccc(Nc2nccc(-c3ccnc(Cl)c3)n2)c1`: 169 to 171 °C. The same measure for `O=C(Nc1cccc(F)n1)c1cc(-c2ccc(Cl)c(Cl)c2)nc2ccccc12`: 204 to 206 °C; for `CS(=O)(=O)c1ccc(C2SCC(=O)N2c2ccc(Cl)cc2)cc1` (centres undefined): 231 to 233 °C; for `COC(=O)CCCS(=O)c1c(Cc2cccc3ccccc23)sc2c1c(=O)n(C)c(=O)n2CC(C)C` (centres undefined): 160 to 161 °C. `CC(C)c1cc(C(=O)O)cs1` had a melting point of 64 to 67 °C.

Take `CCOC(=O)c1c(C(F)(F)F)nc(C(F)(F)Cl)c(C(=O)OC)c1N(CC)CC`: the melting point lay within 31.5 to 33 °C. With `CS(=O)N1CCSc2cccc(Cl)c2C1` (centres undefined) the figure was 82 to 84 °C. With `Cc1ccc2ccc(C(N)=O)cc2c1` the figure was 210 to 212 °C; with `CC(C)CCN1C(=O)C(NC(=O)Oc2cccc(N(C)C)c2)C(=O)N(c2ccccc2)c2ccc(Cl)cc21` (centres undefined), 199 to 200 °C; with `O=C1Oc2cc(O)ccc2CN1C1CCCCC1`, 193 to 196 °C.

For the molecule `COc1ccc(CNc2c(Cl)cnn(-c3ccccc3)c2=O)cc1`, the melting point was in the range of 125 to 126 °C. The same measure for `COC(=O)c1sccc1Oc1ncc(OC)c(OC)n1`: 107 to 109 °C; for `O=C(c1ccccc1C(c1ccc(O)cc1)c1ccc(O)cc1)N(c1ccccc1)c1ccccc1`: 262 to 263 °C. With `CC(CO)CCn1c(C(=O)NCc2cc(C(F)(F)F)cc(C(F)(F)F)c2)c(-c2ccccc2)c2cccnc2c1=O` (racemic) the figure was 213 to 214 °C. In turn, `CCOC(=O)CNC(=O)[C@H](CSCc1ccccc1)NC(=O)OCc1ccccc1` registered a melting point of 93 to 95 °C. On to `O=C(c1ccc[nH]1)c1cccn1N1C(=O)c2ccccc2C1=O`, for which the melting point fell in the range of 204 to 206 °C. The same measure for `c1ccc(Sc2ccc(Sc3ccccc3)cc2)cc1`: 78 to 79 °C; for `N#Cc1ncc(Sc2ccccc2)nc1C#N`: 109 to 112 °C. The same measure for `O=c1c(Br)c(SCc2ccccc2)ccn1Cc1ccccc1`: 181 to 182 °C; for `CC(C)Cn1c(=O)n(C)c(=O)c2c(SC(C)C)c(Cn3cnc4ccccc43)sc21`: 195 °C. The same measure for `COCC(=O)N1CCc2nc3ccccc3c(C)c2CC1`: 116 °C; for `O=C(Nc1ccccc1)c1cccc(Nc2ccccc2)c1`: 134 to 135 °C. In turn, `CCCn1c(CCO)nc2c(N)nc3cc(OCCCNC(=O)C(C)C)ccc3c21` gave a melting point of 190 to 192 °C.

The values are drawn from a melting point compilation (Tetko et al.; mined from patent text by program, amines drawn as free bases though some values may be those of a salt).
